The subject of series [1] is HEI-193 human schwannoma cells. The experiment in a line: Metabolic activity (MTT) assay, HEI-193. Type of series: cell-based. Conditions: for HEI-193 cell metabolic activity: 72 h; for metabolic activity of HEI-193 cells: preliminary testing, clinically reasonable concentrations. How it is done:
(§1) HEI-193 cells are derived from a patient with sporadic bilateral vestibular schwannomas and a history of meningioma; these cells express a splice variant of the merlin protein (encoded by the NF2 gene), but neither typical isoform^52. HEI-193 cells were cultured in DMEM/F12-containing medium with 10% fetal bovine serum and 1% penicillin and streptomycin mix as described above. Immortalized NF2-null and NF2-expressing arachnoid AC-CRISPR cell lines derived from primary human autopsy specimens were obtained via generous gift from Dr. Vijaya Ramesh at Massachusetts General Hospital^40. NF2-null and NF2-expressing arachnoid cells were cultured in DMEM with 15% fetal bovine serum and 1% penicillin and streptomycin mix. All cell lines were maintained in an incubator at 37 degrees Celsius with 5% carbon dioxide and treated with drugs 24-36 hours after seeding at between 15,000-25,000 cells per well in 24-well plates. Phase contrast photos of healthy and drug-treated cultures were taken at 10× magnification on an IncuCyte S3 instrument (Essen Bio).
Cultures were incubated with drug-containing medium or 0.1% DMSO vehicle for 72 hours and then processed for downstream applications.
The metabolic activity of primary VS and HEI-193 cells was assessed using the colorimetric 3-(4,5-dimethylthiazol-2-yl)-2,5-diphenyltetrazolium bromide (MTT) assay (Life Technologies). After 72-hour incubation of cells in a 24-well plate with medium containing drug or vehicle, culture medium was replaced with 362 μL of colorless DMEM and 38 μL of 12 mM MTT in 3-6 random wells. Cells were incubated for an additional 4 hours. The resulting formazan crystals were dissolved in 380 μL of a solution of 100 mg/mL sodium dodecyl sulfate in 0.01 M HCl and incubated for another 4 hours. Optical density (OD) at 570 nm of each well was detected using a spectrophotometer. The average OD value of cells exposed to vehicle (0.1% DMSO) was set to 100% and used to normalize OD values of cells treated with drugs; metabolic activity was then reported as percent change. Statistical testing was performed on raw OD values (see Statistical Methods).

In series [2] the test system is AC-CRISPR NF2(−/−) and AC-CRISPR NF2(+/+) human arachnoid cells. The experiment in a line: Metabolic viability, arachnoid cells versus schwannoma cells. It counts as cell-based. How it is done:
as §1
(§2) The metabolic activity of primary VS and HEI-193 cells was assessed using the colorimetric 3-(4,5-dimethylthiazol-2-yl)-2,5-diphenyltetrazolium bromide (MTT) assay (Life Technologies). […] Optical density (OD) at 570 nm of each well was detected using a spectrophotometer. […]

Series [3] has as its system HEI-193 cells. The experiment in a line: TUNEL assay, HEI-193. Type of series: cell-based, human. Conditions: 72 h, versus vehicle.
For another series, the system named is unresectable meningioma. Conditions: cited from earlier work.
For series [4] the following is noted: in vivo; cited from earlier work.
The subject of series [5] is primary human VS cells. The experiment in a line: Proliferation assay (BrdU incorporation), primary VS cells. Background: Dividing cells build labelled thymidine or BrdU into new DNA.
The subject of series [6] is HEI-193 cells. The experiment in a line: Flow cytometry, annexin V/propidium iodide staining. It counts as cell-based, human. Conditions: 35 μM, 72 h, versus vehicle. As to the method: Apoptotic cell death was assessed using an Annexin V/propidium iodide (PI) staining kit (Miltenyi Biotec). […] Adherent cells were collected by trypsinization, and non-adherent (floating) cells were collected from culture medium. Cells were centrifuged, washed in PBS, and incubated in 1× annexin binding buffer, annexin V-fluorescein isothiocyanate (FITC), and propidium iodide (PI) according to the manufacturer's recommendations. Stained cells were immediately analyzed using a Cytomics FC500 flow cytometer. Data were analyzed using CXP Analysis software (version 2.2, Coulter).
A general note: In flow cytometry, cells or beads pass a laser one at a time.

The subject of series [7] is HEI-193 cells. The experiment in a line: Phalloidin staining of f-actin, HEI-193. Type of series: cell-based, human. Conditions: 35 μM, 72 hours.
Series [8] deals with HEI-193 cells. The experiment in a line: ELISA for progesterone in conditioned cell culture medium. It counts as cell-based, human. Conditions: 35 μM versus 0.1% DMSO vehicle; p=0.08. How it is done: Cell-conditioned medium was collected from mifepristone-treated and untreated HEI-193 cells after 72-hour incubation with the drug. Enzyme-linked immunosorbent assay (ELISA) was performed on each sample in triplicate to assess the quantity of progesterone in cell-conditioned medium, according to the manufacturer's protocol (Enzo Life Science, # ADI-900-011). Data were analyzed using GraphPad Prism 7 software licensed through Harvard Medical School.
(In general: ELISA stands for enzyme-linked immunosorbent assay.)

In series [9] the test system is primary human VS cells. The experiment in a line: Metabolic activity (MTT) assay, primary VS cells. It counts as cell-based. How it is done:
Written informed consent was obtained from all subjects prior to inclusion in this study and all procedures were conducted in accordance with the Helsinki Declaration of 1975. Detailed methods for human surgical specimen collection, processing, and culture are previously published^38. VS specimens were harvested from patients undergoing surgical tumor resection, and GAN specimens from healthy patients undergoing benign parotidectomy or neck dissection surgery, during which the GAN is routinely sacrificed. Patients who had received radiation therapy prior to surgery were excluded.
Briefly, after surgical resection, VS or GAN tissue was immediately placed in saline solution and transported to the laboratory on ice. Specimens were rinsed with Hank's Balanced Salt Solution (HBSS, ThermoFisher Scientific), dissected to remove burned tissue and blood vessels, and separated for RNA preservation (RNALater, ThermoFisher Scientific) or primary cell culture. […]
as §2

Series [10] has as its system HEI-193 cells. The experiment in a line: Cell cycle analysis. Conditions: 72 h treatment. It counts as cell-based, human. As to the method:
Harvested HEI-193 cells were washed in PBS and fixed in cold 70% ethanol at −20° C. for 18-72 h. Before staining with propidium iodide (PI), cells were centrifuged and washed again in cold PBS. 2×10^6 or fewer cells were incubated with 500 μl staining solution [0.1% Triton X-100 (Sigma), 2 mg/ml RNase A (Qiagen), and 1 μg/ml PI (Miltenyi Biotec) in PBS] for 15 minutes at 37° C. In order to exclude DNAse activity, RNase A was boiled for 5 minutes and cooled down before its addition to staining solution. Cells were analyzed on a Cytomics FC500 flow cytometer using CXP Analysis software (version 2.2, Coulter).

In series [11] the test system is HEI-193 cells. The experiment in a line: Proliferation assay (BrdU incorporation), HEI-193. Type of series: cell-based, human. Conditions: 35 μM, 72 h; p=0.0007. How it is done: 5′bromo-2′-deoxyuridine (BrdU) was added to label proliferating cells in culture 2 hours before fixation in 4% formalin (paraformaldehyde). Cell membranes were permeabilized with 10 minutes of incubation in 1% Triton X-100 and nuclear membranes with 20 minutes in 2N hydrochloric acid (HCl). Cells were blocked in 5% normal horse serum (NHS) and 1% Triton X-100 and incubated with a primary antibody against BrdU (# OBT0030G, AbD Serotec) overnight, followed by incubation with fluorescent anti-rat immunoglobulin G (AlexaFluor, Life Technologies).

Series [12] relates to primary human VS cells. The experiment in a line: Cytotoxicity assay (IncuCyte Cytotox Reagent), primary VS cells. It counts as cell-based. Conditions: 35 μM, 72 hours, live cell fluorescence microscopy.
Description: Cytotoxicity and cell confluence were measured using live-cell, time-lapse phase contrast and fluorescence imaging acquired at 10× by an IncuCyte S3 instrument (Essen Bioscience). Cytotoxicity was measured by incorporation of IncuCyte Cytotox Reagent (Essen Bioscience), applied according to manufacturer's instructions; the reagent fluoresces when it binds DNA after compromise of membrane integrity. Nine images were acquired per well every 2 hours for 72 hours, and cytotoxicity at each time point is reported as number of fluorescent objects per well, after thresholding to avoid the inclusion of small cellular debris. Phase object confluence was measured using time-lapse phase contrast imaging acquired at 10× by the same instrument, analyzing 9 images per well every 2 hours for 72 hours, and is reported as percent confluence per square millimeter.
Series [13] deals with HEI-193 cells. The experiment in a line: Caspase 3/7 activation by live-cell imaging, HEI-193. Type of series: cell-based, human. Conditions: 70 μM and 35 μM, over 100 h, versus vehicle.
In series [14] the test system is HEI-193 cells. The experiment in a line: Cell confluence and phase contrast imaging (IncuCyte), HEI-193. It counts as cell-based, human. How it is done: as §1, with “All cell lines were maintained in an incubator at 37 degrees Celsius with 5% carbon dioxide and treated with drugs 24-36 hours after seeding at between 15,000-25,000 cells per well in 24-well plates. Phase contrast photos of healthy and drug-treated cultures were taken at 10× magnification on an IncuCyte S3 instrument (Essen Bio).” left out
Cytotoxicity and cell confluence were measured using live-cell, time-lapse phase contrast and fluorescence imaging acquired at 10× by an IncuCyte S3 instrument (Essen Bioscience). Cytotoxicity was measured by incorporation of IncuCyte Cytotox Reagent (Essen Bioscience), applied according to manufacturer's instructions; the reagent fluoresces when it binds DNA after compromise of membrane integrity. […] Phase object confluence was measured using time-lapse phase contrast imaging acquired at 10× by the same instrument, analyzing 9 images per well every 2 hours for 72 hours, and is reported as percent confluence per square millimeter.

The test system of series [15] is primary human Schwann cells. The experiment in a line: Metabolic activity (MTT) assay, primary Schwann cells. It counts as cell-based. Conditions: p=0.23.
The test system of another series is primary VS cells. The experiment in a line: Cell death (TUNEL) assay, primary VS cells. It counts as cell-based, human. Conditions: 25 μM, 72 h.

The values that follow come from US20200093835A1, “METHODS OF TREATING VESTIBULAR SCHWANNOMA” (Massachusetts Eye and Ear Infirmary, priority 2017, published 2020).

For the molecule `Nc1ncnc2c1ncn2[C@@H]1O[C@H](COP(=O)(O)O)[C@@H](O)[C@H]1O` [ADENOSINE MONOPHOSPHATE, ADENOSINE, adenosine monophosphate], the “HEI-193 cell metabolic activity” value in series [1] (5, 10, and 15 μM) was “no significant effect”. For the same molecule, in series [1], the “metabolic activity of HEI-193 cells” value is “no effect”.

Take `C[C@H]1C[C@@H]2[C@H]([C@@H](O)C[C@@]3(C)[C@H]2CC[C@]3(O)C(=O)CO)[C@@]2(C)C=CC(=O)C=C12` [methylprednisolone]: in [1] (27 μM), the “HEI-193 cell metabolic activity” value is recorded as “no significant effect”. For the same molecule, the “metabolic activity of HEI-193 cells” value in [1] is given as “no effect”.

For the molecule `CC#C[C@]1(O)CC[C@H]2[C@@H]3CCC4=CC(=O)CCC4=C3[C@@H](c3ccc(N(C)C)cc3)C[C@@]21C` [mifepristone, 11β-(4-dimethylaminophenyl)-17β-hydroxy-17α-(1-propynyl)-estra-4,9-dien-3-one], the “metabolic viability, schwannoma cells compared with arachnoid cells” value in series [2] was “reduces the metabolic viability of schwannoma cells more significantly”. Also, the “number of TUNEL positive cells” value in the series with HEI-193 cells [3] is “no statistically significant difference”. The outcome versus placebo with unresectable meningioma (double-blind, randomized Phase III trial of 164 patients) was “no difference between treatment and placebo”. Further, in the series on unresectable meningioma (long-term clinical trial, unresectable meningioma), the “patients with minor responses resulting in clinical benefit” value is on record as “eight of 28”. Besides, in series [4], the blood-brain barrier crossing entry was “able to cross the blood-brain barrier”. Moreover, the “BrdU incorporation in primary VS cells” value with primary human VS cells [5] (35 μM, p=0.0002) is reported as “significant decline”. The “early apoptotic cells (annexin V/propidium iodide)” value in the series with HEI-193 cells [6] is “slight but not significant increase”. In the series with HEI-193 cells [7], the “f-actin morphology (phalloidin staining)” value is “crumpled f-actin morphology”. Further, the “progesterone in culture medium” value in the series with HEI-193 cells [8] is “increase in progesterone in culture medium”. For the same molecule, in the series with primary human VS cells [9] (MTT, ten tumors, vehicle vs 35 μM p=0.002), the “metabolic activity of primary VS cells” value is given as “declines with increasing concentrations”. Also, the “phase of cell cycle” value in the series with HEI-193 cells [10] is reported as “no significant differences”. Besides, the “percentage of BrdU+ HEI-193 cells” value in the series on HEI-193 cells [11] is reported as “significantly declines”. Further, in the series with primary human VS cells [12], the “cytotoxicity of VS cells” value was “significant increase”. Moreover, the “caspase 3/7 activity” value with HEI-193 cells [13] is listed as “slight but not significant elevation”. Besides, the “metabolic viability of HEI-193 cells” value in series [1] (MTT, 72 h in culture, vehicle vs 35 μM p=0.006) was “decreases with increasing concentration”. Besides, the phase object confluence result with HEI-193 cells [14] (35 μM, 72 hours) is “remains constant”. Besides, the “cell shape under treatment” value in the series with HEI-193 cells [14] (phase contrast, FIG. 2C) is “long, thin, spindle-like shape”. Moreover, the “metabolic viability of primary human Schwann cells” value in series [15] is on record as “does not adversely affect”.

In the case of `C[C@]12C=CC(=O)C=C1CC[C@@H]1[C@@H]2[C@@H](O)C[C@@]2(C)[C@H]1CC[C@]2(O)C(=O)CO` [prednisolone], the “proliferation of primary VS cells” value with primary human VS cells [5] (25 μM, 72 h) is recorded as “no effect”. Moreover, in the series on primary human VS cells [9] (25 μM, 72 h), the “metabolic activity of primary VS cells” value is reported as “modest effect”. Moreover, the “HEI-193 cell metabolic activity” value in series [1] (25 μM) is listed as “no significant effect”. The “elevation in cell death among primary VS cells versus vehicle” value in the series on primary VS cells was 15.85%.

In the case of `O=C(O)[C@@H](S)[C@@H](S)C(=O)O` [succimer], the “HEI-193 cell metabolic activity” value in series [1] (25, 50, and 100 μM) is on record as “no significant effect”. In series [1], the “metabolic activity of HEI-193 cells” value was “no effect”.

Turning to gold sodium thiomalate, the “HEI-193 cell metabolic activity” value in series [1] (25, 50, 100, and 300 μM) is recorded as “significant effect on HEI-193 cell metabolic activity, but only at clinically unreasonable concentrations”. In series [1], the “metabolic activity of HEI-193 cells” value is reported as “no effect”.
